Measurements from ChEMBL document CHEMBL5500339, “4-Hydroxy-2-pyridone derivatives with antitumor activity produced by mangrove endophytic fungus Talaromyces sp. CY-3” (Eur J Med Chem, 2024).
Activity calls are given as the source filed them. The rule behind the calls is not given here.

Key:
A549 [1] = assay: Cytotoxicity against human A549 cells assessed as reduction in cell viability incubated for 48 hrs by MTT assay; assay type: functional, cell-based; settings: A549, 48 h
MDA-MB-435 = assay: Cytotoxicity against human MDA-MB-435 cells assessed as reduction in cell viability incubated for 48 hrs by MTT assay; assay type: functional, cell-based; settings: MDA-MB-435, 48 h
MC-38 = assay: Cytotoxicity against mouse MC38 cells assessed as reduction in cell viability incubated for 48 hrs by MTT assay; assay type: functional, cell-based; settings: MC-38, 48 h
A549 [2] = assay: Inhibition of colony formation in human A549 cells at 20 uM incubated for 7 days by crystal violet staining analysis; assay type: functional, cell-based; settings: time 7.0 day
NCI-H1703 [3] = assay: Antiproliferative activity against human NCI-H1703 cells assessed as inhibition of cell growth at 20 uM incubated for 24 hrs by MTT assay; assay type: functional, cell-based
A549 [4] = assay: Induction of cell cycle arrest in human A549 cells assessed as accumulation of cells at G2/M phase at 20 uM incubated for 24 hrs by flow cytometric analysis (reference value: 17.2 %); assay type: functional
NCI-H1703 [5] = assay: Induction of cell cycle arrest in human NCI-H1703 cells assessed as accumulation of cells at G2/M phase at 5 uM incubated for 24 hrs by flow cytometric analysis (reference value: 29.88 %); assay type: functional
A549 [6] = assay: Induction of cell cycle arrest in human A549 cells assessed as upregulation of p21 protein expression incubated for 24 hrs by Western blotting analysis; assay type: functional, cell-based
A549 [7] = assay: Induction of cell cycle arrest in human A549 cells assessed as downregulation of CyclinD1 protein expression incubated for 24 hrs by Western blotting analysis; assay type: functional, cell-based
NCI-H1703 [8] = assay: Induction of cell cycle arrest in human NCI-H1703 cells assessed as downregulation of CDK4 protein expression incubated for 24 hrs by Western blotting analysis; assay type: functional, cell-based
NCI-H1703 [9] = assay: Induction of cell cycle arrest in human NCI-H1703 cells assessed as downregulation of CDK6 protein expression incubated for 24 hrs by Western blotting analysis; assay type: functional, cell-based
A549 [10] = assay: Induction of cell cycle arrest in human A549 cells assessed as downregulation of Rb phosphorylation at Ser807/811 residue at 10 uM incubated for 24 hrs by Western blotting analysis; assay type: functional, cell-based
A549 [11] = assay: Induction of cell cycle arrest in human A549 cells assessed as downregulation of Rb phosphorylation at Ser807/811 residue at 20 uM incubated for 24 hrs by Western blotting analysis; assay type: functional, cell-based
NCI-H1703 [12] = assay: Induction of cell cycle arrest in human NCI-H1703 cells assessed as downregulation of total Rb protein level at 10 uM incubated for 24 hrs by Western blotting analysis; assay type: functional, cell-based

C/C=C/[C@@H]1[C@H]2C[C@@H](C)CC[C@@H]2C(C)=C[C@H]1C(=O)c1c(O)c(-c2ccc(O)cc2)c[nH]c1=O [ILICICOLIN H]
IC50 (A549 [1]): 7.01 µM | IC50 (MDA-MB-435): 6.34 µM | IC50 (MC-38): 19.6 µM | inhibition (A549 [2]): Active | Activity (NCI-H1703 [3]): Active | Activity (A549 [4]): 12.93% | Activity (NCI-H1703 [5]): 26.61% | Activity (A549 [6]): Dose-Dependent Effect | Activity (A549 [7]): Dose-Dependent Effect | Activity (NCI-H1703 [8]): Dose-Dependent Effect | Activity (NCI-H1703 [9]): Dose-Dependent Effect | Activity (A549 [10]): Active | Activity (A549 [11]): Active | Activity (NCI-H1703 [12]): inactive
